Assay results: patent US12583858B2 (Genentech, Inc., priority 2015, dated 2026)
pEC50: −log10 of the molar value.

Target: T1, TDO2 (Homo sapiens, UniProt P48775)
T1 construct: decreased levels of NFK in SW48 cells (high TDO expressing cells)
Assay: TDO2 cell assay (NFK GreenScreen, SW48 cells)
Type: cell-based
Settings: SW48 cells (high TDO expressing), 200 uM tryptophan, 24 hours; Table 3; read-out: TDO2 Cell Fluor EC50

T1 sequence (P48775 whole entry): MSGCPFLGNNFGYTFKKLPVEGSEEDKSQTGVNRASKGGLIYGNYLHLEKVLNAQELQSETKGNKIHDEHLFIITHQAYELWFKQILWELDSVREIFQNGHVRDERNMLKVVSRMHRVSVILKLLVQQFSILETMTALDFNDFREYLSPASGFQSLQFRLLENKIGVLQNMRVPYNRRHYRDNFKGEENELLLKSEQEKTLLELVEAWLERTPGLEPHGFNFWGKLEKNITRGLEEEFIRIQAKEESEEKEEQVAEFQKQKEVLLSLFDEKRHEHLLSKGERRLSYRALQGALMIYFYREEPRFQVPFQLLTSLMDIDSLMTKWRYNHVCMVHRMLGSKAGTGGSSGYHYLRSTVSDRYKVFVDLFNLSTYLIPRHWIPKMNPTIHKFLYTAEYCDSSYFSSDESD

pEC50	SMILES
< 4.60	OC1COCC1C1c2ccccc2-c2cncn21 (single isomer, unassigned) [Example 26a]
5.18	OC1CC2(CC2)C1C1c2ccccc2-c2cncn21 (single isomer, unassigned) [Example 72a]
4.96	N[C@H]1COC[C@H]1[C@H]1c2ccccc2-c2cncn21 [Example 32b, (3R,4R)-4-[(5S)-5H-imidazo[4,3-a]isoindol-5-yl]oxolan-3-amine]
6.40	CC1(C)CC(O)C1C1c2ccccc2-c2cncn21 (single isomer, unassigned) [Example 22h]
< 4.60	Cc1ccc2c(c1)-c1cncn1C2C1COCC1O (single isomer, unassigned) [Example 171b]
< 4.60	OC1CCOCC1C1c2c(Cl)cccc2-c2cncn21 (single isomer, unassigned) [Example 69b]
7.06	CS(=O)(=O)N1CC[C@@H]([C@@H]2c3ccccc3-c3cncn32)[C@H](O)C1 (single isomer, unassigned) [Example 64b]
6.43	OC1c2[nH]ncc2CCC1C1c2ccccc2-c2cncn21 (single isomer, unassigned) [Example 157a]
5.22	OC1c2ccnn2CCCC1C1c2ccccc2-c2cncn21 (single isomer, unassigned) [Example 133c]
5.44	OC1CCCC1C1c2ccc(F)cc2-c2cncn21 (single isomer, unassigned) [Example 20c]
< 4.60	NC(=O)C1CCC(O)(C2c3ccccc3-c3cncn32)CC1 (single isomer, unassigned) [Example 140c]
4.92	NS(=O)(=O)N1CCC2(CC1)CC(C1c3ccccc3-c3cncn31)C2O (single isomer, unassigned) [Example 181e]
4.70	N#CCN1CCC(O)C(C2c3ccccc3-c3cncn32)C1 (single isomer, unassigned) [Example 14c]
4.80	OC1CCCCC1C1c2ccccc2-c2cncn21 (single isomer, unassigned) [Example 03e]
7.00	OC1c2nonc2CCC1C1c2ccccc2-c2cncn21 (single isomer, unassigned) [Example 163a]
5.35	Cn1cc2c(n1)CCC(C1c3ccccc3-c3cncn31)C2O (single isomer, unassigned) [Example 130g]
4.85	O[C@@H]1CC[C@@H]1[C@@H]1c2ccccc2-c2cncn21 [Example 01a, (1R,2R)-2-((R)-5H-imidazo[5,1-a]isoindol-5-yl)cyclobutan-1-ol]
7.15	OC1CCCC1C1c2ccccc2-c2cncn21 (single isomer, unassigned) [Example 02f]
4.92	NC(=O)c1ccc2c(c1)C(O)C(C1c3ccccc3-c3cncn31)CC2 (single isomer, unassigned) [Example 122b]
5.47	OC1CCCCCC1C1c2ccccc2-c2cncn21 (single isomer, unassigned) [Example 115b, 2-(5H-imidazo[5,1-a]isoindol-5-yl)cycloheptan-1-ol]
4.92	O[C@@H]1c2ccncc2CC[C@H]1[C@@H]1c2ccccc2-c2cncn21 (single isomer, unassigned) [Example 08f]

pEC50	SMILES
5.89	CS(=O)(=O)c1ccc2c(c1)CCC(C1c3ccccc3-c3cncn31)C2O (single isomer, unassigned) [Example 36a]
6.44	N#CCN1CCC(O)C(C2c3ccccc3-c3cncn32)C1 (single isomer, unassigned) [Example 14a]
< 4.60	O[C@@H]1c2ncccc2CC[C@H]1[C@H]1c2ccccc2-c2cncn21 (single isomer, unassigned) [Example 126a]
4.62	O=c1cccc2n1CCC(C1c3ccccc3-c3cncn31)C2O (single isomer, unassigned) [Example 29c, 1-hydroxy-2-(5H-imidazo[5,1-a]isoindol-5-yl)-3,4-dihydro-1H-quinolizin-6(2H)-one]
5.68	OC1CC(CF)(CF)C1C1c2ccccc2-c2cncn21 (single isomer, unassigned) [Example 150b]
5.02	CN(C)C(=O)c1ccc2c(c1)CCC(C1c3ccccc3-c3cncn31)C2O (single isomer, unassigned) [Example 98d]
5.40	CNS(=O)(=O)N1CC[C@H]([C@H]2c3ccccc3-c3cncn32)[C@@H](O)C1 [Example 74a, (3R,4R)-3-hydroxy-4-((S)-5H-imidazo[5,1-a]isoindol-5-yl)-N-methylpiperidine-1-sulfonamide]
4.92	Nc1cc2n(n1)CCC(C1c3ccccc3-c3cncn31)C2O [Example 161d, (4S,5R)-2-amino-5-((S)-5H-imidazo[5,1-a]isoindol-5-yl)-4,5,6,7-tetrahydropyrazolo[1,5-a]pyridin-4-ol]
< 4.60	OC1CC2(CCC2)C1C1c2ccccc2-c2cncn21 (single isomer, unassigned) [Example 67b]
5.02	NC(=O)c1nc2c(s1)CCC(C1c3ccccc3-c3cncn31)C2O (single isomer, unassigned) [Example 149d]
< 4.60	OC1COCCC1C1c2c(Cl)cccc2-c2cncn21 (single isomer, unassigned) [Example 69-1b]
< 4.60	OC1C(C2c3ccccc3-c3cncn32)CCC12CCOCC2 (single isomer, unassigned) [Example 68c]
4.64	O[C@H]1c2[nH]ncc2CC[C@H]1[C@H]1c2ccccc2-c2cncn21 [Example 157d, (6S,7R)-6-((S)-5H-imidazo[5,1-a]isoindol-5-yl)-4,5,6,7-tetrahydro-1H-indazol-7-ol]
< 4.60	OC1COCCC1C1c2ccccc2-c2cncn21 (single isomer, unassigned) [Example 06h]
5.96	NC(=O)c1cc2n(n1)CCC(C1c3ccccc3-c3cncn31)C2O (single isomer, unassigned) [Example 172b]
5.32	CC1(C)COCC(C2c3ccccc3-c3cncn32)C1O (single isomer, unassigned) [Example 66c]
5.17	O[C@H]1[C@@H]([C@@H]2c3ccccc3-c3cncn32)CCC12CCOCC2 [Example 68a, (1S,2R)-2-((R)-5H-imidazo[5,1-a]isoindol-5-yl)-8-oxaspiro[4.5]decan-1-ol]
6.19	OC1CC2(CC2)C1C1c2ccccc2-c2cncn21 (single isomer, unassigned) [Example 72b]
< 4.60	O[C@H]1c2cncn2CC[C@@H]1[C@@H]1c2ccccc2-c2cncn21 [Example 07g, (7R,8R)-7-((R)-5H-imidazo[5,1-a]isoindol-5-yl)-5,6,7,8-tetrahydroimidazo[1,5-a]pyridin-8-ol]
7.09	CC1(C)CCC(C2c3ccccc3-c3cncn32)C1O (single isomer, unassigned) [Example 23c]
5.92	OC1CCOCC1C1c2cc(F)ccc2-c2cncn21 (single isomer, unassigned) [Example 75b]

pEC50	SMILES
4.77	Nc1ccc2c(n1)CCC(C1c3ccccc3-c3cncn31)C2O (single isomer, unassigned) [Example 121d]
6.25	OC1COCCC1C1c2ccccc2-c2cncn21 (single isomer, unassigned) [Example 06g]
< 4.60	OC1c2cnnn2CCC1C1c2ccccc2-c2cncn21 (single isomer, unassigned) [Example 146b]
7.30	OC1CCCCCC1C1c2ccccc2-c2cncn21 (single isomer, unassigned) [Example 115c, 2-(5H-imidazo[5,1-a]isoindol-5-yl)cycloheptan-1-ol]
7.27	OC1c2nonc2CCC1C1c2ccccc2-c2cncn21 (single isomer, unassigned) [Example 163d]
6.46	OC1(C2c3ccccc3-c3cncn32)CCC1 (single isomer, unassigned) [Example 47a]
5.70	OC(C1CC1)C1c2ccccc2-c2cncn21 (single isomer, unassigned) [Example 52d]
6.62	OC(C1CC1)C1c2ccccc2-c2cncn21 (single isomer, unassigned) [Example 52a]
5.55	CS(=O)(=O)c1ccc2c(c1)OCC(C1c3ccccc3-c3cncn31)C2O (single isomer, unassigned) [Example 91a]
< 4.60	CC(C)(C)OC(=O)N1CC2(CC(C3c4ccccc4-c4cncn43)C2O)C1 (single isomer, unassigned) [Example 41g, tert-butyl 7-hydroxy-6-(5H-imidazo[1,5-b]isoindol-5-yl)-2-azaspiro[3.3]heptane-2-carboxylate]
7.32	OC1CCCCC1C1c2ccc(F)cc2-c2cncn21 (single isomer, unassigned) [Example 25d]
< 4.60	CS(=O)(=O)N1CCC(O)(C2c3ccccc3-c3cncn32)C1 (single isomer, unassigned) [Example 116c]
5.57	CC(=O)N1CCC(O)C(C2c3ccccc3-c3cncn32)C1 (single isomer, unassigned) [Example 12a]
5.80	Cc1cc2c(cn1)C(O)C(C1c3ccccc3-c3cncn31)C2 (single isomer, unassigned) [Example 59c]
6.27	CS(=O)(=O)N1CCC2(CC1)CC(C1c3ccccc3-c3cncn31)C2O (single isomer, unassigned) [Example 179d]
< 4.60	N[C@@H]1COC[C@@H]1[C@@H]1c2ccccc2-c2cncn21 [Example 32a, (3S,4S)-4-[(5R)-5H-imidazo[4,3-a]isoindol-5-yl]oxolan-3-amine]
< 4.60	N#CCN1CCC(O)C(C2c3ccccc3-c3cncn32)C1 (single isomer, unassigned) [Example 58d]
< 4.60	Cc1cc2n(n1)CCC(C1c3ccccc3-c3cncn31)C2O (single isomer, unassigned) [Example 166a]
5.12	O[C@H]1CCCC[C@@H]1[C@@H]1c2ccccc2-c2cncn21 [Example 03g, (1S,2R)-2-((R)-5H-imidazo[5,1-a]isoindol-5-yl)cyclohexan-1-ol]
6.89	O[C@@H]1c2c(F)cnn2CC[C@H]1[C@H]1c2ccccc2-c2cncn21 (single isomer, unassigned) [Example 151d]
